This note sets out measurements from ChEMBL document CHEMBL3244115 (1979).

Common to all, as to assay type: functional
For assay [1], the system named is B16. Briefly: Antitumor activity against mouse B16 cells allografted in BDF mouse assessed as increase in life span at 100 mg/kg, ip administered for 9 days relative to untreated control. The note with it: route intraperitoneal.
The test system of assay [2] is B16. Briefly: Antitumor activity against mouse B16 cells allografted in ip dosed BDF mouse assessed as 25% increase in life span administered for 9 days.
In assay [3] the test system is B16. Nature of the assay: Antitumor activity against mouse B16 cells allografted in BDF mouse assessed as increase in life span at 8 mg/kg, ip administered for 9 days relative to untreated control. The note with it: route intraperitoneal.
Assay [4] concerns B16. Briefly: Antitumor activity against mouse B16 cells allografted in BDF mouse assessed as increase in life span at 25 mg/kg, ip administered for 9 days relative to untreated control. The settings on record: route intraperitoneal.
Assay [5] concerns B16. Nature of the assay: Antitumor activity against mouse B16 cells allografted in BDF mouse assessed as increase in life span at 4 mg/kg, ip administered for 9 days relative to untreated control. The note with it: route intraperitoneal.

As for `ClCCN(CCCl)c1ccc(/C=C/c2ccccc2)cc1`, the T/C (in general, the ratio of treated to control) in assay [1] is reported as 101%. The “log(1/C)” value in assay [2] turned out to be 2.86.
`O=C(O)CCCc1ccc(N(CCCl)CCCl)cc1` [CHLORAMBUCIL]: the T/C in assay [3] was 133%. In addition, the “log(1/C)” value in assay [2] is listed as 4.7.
`NC(=O)Nc1cc(NC(N)=O)cc(N(CCCl)CCCl)c1`: the T/C in assay [4] stood at 108%. Besides, the “log(1/C)” value in assay [2] turned out to be 3.69.
In the case of `NC(Cc1ccc(N(CCCl)CCCl)cc1)C(=O)O` (stereo not drawn) [SARCOLYSIN], the T/C in assay [5] worked out at 236%. The “log(1/C)” value in assay [2] worked out at 6.18.
